# Laboratory results taken from patent publication US11766419B2, “Mebeverine as soluble epoxide hydrolase inhibitor” (Banasthali Vidyapith, priority 2021, dated 2023).
# Several values for one entry are separate records, joined by “and”; a condition that tells them apart may be missing. Equal entries are not always repeated.
# Columns and labels:
# [1] = biological target: T1, sEH (Homo sapiens, UniProt P34913); test: In vitro sEH activity assay (PHOME substrate, fluorescence); type: biochemical; set-up: sEH inhibitory activity (in words): dose or concentration left out as unconfirmed
# T1 sequence (P34913 1-555): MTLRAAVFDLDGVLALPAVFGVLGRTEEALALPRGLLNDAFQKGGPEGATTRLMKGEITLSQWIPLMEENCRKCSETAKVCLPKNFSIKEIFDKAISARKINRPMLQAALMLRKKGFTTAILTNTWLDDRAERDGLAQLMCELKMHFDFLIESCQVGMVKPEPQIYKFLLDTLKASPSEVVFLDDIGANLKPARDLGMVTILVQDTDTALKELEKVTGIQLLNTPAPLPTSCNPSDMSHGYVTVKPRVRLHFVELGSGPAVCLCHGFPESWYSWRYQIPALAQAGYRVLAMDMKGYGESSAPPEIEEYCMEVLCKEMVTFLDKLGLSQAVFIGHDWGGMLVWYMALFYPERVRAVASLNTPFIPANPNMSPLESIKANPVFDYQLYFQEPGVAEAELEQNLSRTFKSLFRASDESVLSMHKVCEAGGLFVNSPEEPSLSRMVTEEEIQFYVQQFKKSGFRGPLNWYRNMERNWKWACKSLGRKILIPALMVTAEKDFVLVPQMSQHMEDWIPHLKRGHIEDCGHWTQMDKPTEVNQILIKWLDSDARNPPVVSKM
# Experimental: Hydrolysis of PHOME by sEH results in the release of cyanohydrins that further decomposes to cyanide ion and 6-methoxy-2-naphthaldehyde (highly fluorescent). The fluorescence was analyzed at an excitation and emission wavelength of 330 nm and 465 nm respectively.
# [2] = test system: isolated rat aortic strip; test: Ex-vivo relaxation of KCl pre-constricted isolated rat aortic strip; conditions: aortic rings constricted with 80 mmol KCl
# Experimental: Aortic rings were suspended in organ baths containing a modified Krebs buffer and bubbled with a mixture of 95% O2/5% CO2. Rings were connected to an isometric force transducer, resting tension was set to 5 g and constricted with 80 mmol KCl. The relaxation of these pre-constricted aortic trips at different concentrations of mebeverine (10^−9-10^−[…]) are tabulated in Table 2 and plotted in FIG. 2.
# [3] = test system: DOCA-induced hypertensive rats; test: DOCA induced hypertension, blood pressure; type: in vivo, rat
# Experimental: Wistar albino male rats were divided into four experimental groups (I, II, III and IV). Groups (II-IV) were administered with DOCA (20 mg/kg in 5% DMSO) intraperitoneally and drinking water was replaced by 2% NaCl. After induction of high blood pressure, Groups III and IV were treated with 10 mg/kg and 20 mg/kg mebeverine orally, respectively. At the end of this experimental period SAP, DAP and MAP were measured. The results are tabulated below in Tables 4A, 4B and 4C, respectively, and are plotted in FIGS. 4a, 4b and 4c.
# [4] = test system: Lipopolysaccharide (LPS)-induced hyperlipidemic rats; test: TBAR and SOD level in hepatic tissue, LPS-induced hyperlipidemia; type: in vivo, rat
# Experimental: Wistar albino male rats were divided into different experimental groups—Single dose of 10 mg/kg, i.p. of LPS was administered to all the groups (II-IV). After 3 days of induction mebeverine was orally given twice daily for 5 days to groups (III-IV). After last dose, on day 5, blood samples were collected from all experimental rats for analysis of serum lipid profile parameters and CRI/AI. […] Biochemical estimations in hepatic tissue samples were also analyzed.
compound,measurement,setting,value
CCN(CCCCOC(=O)c1ccc(OC)c(OC)c1)C(C)Cc1ccc(OC)cc1 (stereo not drawn) [Mebeverine],sEH inhibitory activity (in words),[1]; dose-dependent,potent inhibitor of sEH enzyme
same,IC50,"[1]; sEH, PHOME substrate",3.9 nM
same,% relaxation,[2]; Mebeverine conc 10^−4 nM (maximal relaxant effect),79.3±0.01% and 79.3%
same,% relaxation,[2]; Mebeverine conc 10^−5 nM,71.1%
same,% relaxation,[2]; Mebeverine conc 10^−6 nM,64.9%
same,% relaxation,[2]; Mebeverine conc 10^−7 nM,52.2%
same,% relaxation,[2]; Mebeverine conc 10^−8 nM,23.9%
same,% relaxation,[2]; Mebeverine conc 10^−9 nM,14.5%
same,DAP,"[3]; 10 mg/kg orally, D 0",168 ± 10.60 mm Hg
same,MAP,"[3]; 10 mg/kg orally, D 0",179 ± 7.63 mm Hg
same,SAP,"[3]; 10 mg/kg orally, D 0",213 ± 2.82 mm Hg
same,DAP,"[3]; 10 mg/kg orally, D 3",156 ± 9.89 mm Hg
same,MAP,"[3]; 10 mg/kg orally, D 3",170 ± 0.52 mm Hg
same,SAP,"[3]; 10 mg/kg orally, D 3",187 ± 8.48 mm Hg
same,DAP,"[3]; 10 mg/kg orally, D 4",101 ± 1.52 mm Hg
same,MAP,"[3]; 10 mg/kg orally, D 4",114 ± 6.08 mm Hg
same,SAP,"[3]; 10 mg/kg orally, D 4",140 ± 8.00 mm Hg
same,DAP,"[3]; 10 mg/kg orally, D 5",84 ± 1.06 mm Hg
same,MAP,"[3]; 10 mg/kg orally, D 5",99 ± 0.77 mm Hg
same,SAP,"[3]; 10 mg/kg orally, D 5",108 ± 1.41 mm Hg
same,DAP,"[3]; 20 mg/kg orally, D 0",185 ± 3.50 mm Hg
same,MAP,"[3]; 20 mg/kg orally, D 0",199 ± 6.54 mm Hg
same,SAP,"[3]; 20 mg/kg orally, D 0",226 ± 4.94 mm Hg
same,DAP,"[3]; 20 mg/kg orally, D 3",128 ± 7.07 mm Hg
same,MAP,"[3]; 20 mg/kg orally, D 3",140 ± 1.71 mm Hg
same,SAP,"[3]; 20 mg/kg orally, D 3",166 ± 6.36 mm Hg
same,DAP,"[3]; 20 mg/kg orally, D 4",83 ± 5.13 mm Hg
same,MAP,"[3]; 20 mg/kg orally, D 4",96 ± 7.57 mm Hg
same,SAP,"[3]; 20 mg/kg orally, D 4",114 ± 10.01 mm Hg
same,DAP,"[3]; 20 mg/kg orally, D 5",72 ± 0.70 mm Hg
same,MAP,"[3]; 20 mg/kg orally, D 5",86 ± 0.63 mm Hg
same,SAP,"[3]; 20 mg/kg orally, D 5",98 ± 1.09 mm Hg
same,SOD,[4]; 10 mg/kg,67.13 ± 0.21 U/g protein
same,TBAR,[4]; 10 mg/kg,1.10 ± 0.01 nmol/mg protein
same,SOD,[4]; 20 mg/kg,74.50 ± 0.15 U/g protein
same,TBAR,[4]; 20 mg/kg,0.701 ± 0.02 nmol/mg protein
